{"source": "patent US20120020930A1", "about": "“METHODS FOR THE PREPARATION OF ADIPOSE DERIVED STEM CELLS AND UTILIZING SAID CELLS IN THE TREATMENT OF DISEASES” (CELLERIX, S.A., priority 2008, published 2012)", "key": {"ASC [1]": {"tested_on": "ASC", "test": "Transwell migration of ASC towards SDF-1 in the presence of Diprotin A", "assay_type": "cell-based, human", "conditions": "Diprotin A 0, 1, 5, 10 mM on upper surface; SDF-1 50 μM in well; 24 h; crystal violet stained cells counted; FIG. 1", "description": "ASC were obtained from lipoaspirates obtained from human adipose tissue from healthy adult donors. Lipoaspirates were washed twice with PBS, and digested at 37° C. for 30 minutes with 0.075% collagenase (Type I, Invitrogen, Carlsbad, Calif.) in PBS. The digested sample was washed with 10% of fetal bovine serum (FBS), treated with 160 mM CINH4, suspended in culture medium (DMEM containing 10% FBS) and filtered through a 40-μm nylon mesh. Cells were seeded (2-3×10^4 cells/cm^2) onto tissue culture flasks and expanded at 37° C. and 5% CO2, changing the culture medium every 7 days. Cells were passed to a new culture flask (1,000 cells/cm^2) when cultures reached 90% of confluence. Cells were phenotypically characterized by their capacity to differentiate into chondro-, osteo-, and adipo-genic lineages. A pool of 6 ASC samples from different donors (culture passage 4-6) was used.\nASC (10^4 cells) were seeded onto the upper surface of a Transwell permeable support insert with a pore size of 8 μm. The permeable supports were inserted into a 24 well plate. […]\nStained cells (i.e. those having migrated to the underside of the permeable support) were then counted. Total number of counted cells per experimental condition is shown (two inserts per condition were counted)."}, "ASC [2]": {"tested_on": "ASC", "test": "IDO expression in ASC upon stimulation with pro-inflammatory mediators (RT-PCR and Western Blot)", "assay_type": "cell-based", "conditions": "TNF-α at 50 ng/mi"}}, "note": "Entries after “also recorded” stand apart in the source; their conditions may differ.", "data": [{"substance": "Ile-Pro-Ile [Diprotin A]", "values": [{"measurement": "number of migrating cells (ASC migration to the underside of the permeable support)", "setting": "ASC [1]", "result": "increased migration of cells; also recorded: increased in proportion to the amount of Diprotin A"}]}, {"substance": "TNF-α", "values": [{"measurement": "IDO expression", "setting": "ASC [2]", "result": "did not induce IDO expression"}]}]}
